Laboratory results as given in ChEMBL document CHEMBL1201862, “PubChem BioAssay data set” (2004).
Calls of active or inactive are those of the source.

Key:
[1] = NIH-3T3 fibroblast cytotoxicity, dose response, cytotoxicity control, cell-based, fluorescence, Alamar Blue, secondary assay (AID 2327); assay type: functional;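 note: NIH-3T3 mouse fibroblasts cultured with fluconazole at 8 µg/mL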
[2] = fluconazole-exposed Candida albicans growth modulators – fluorescence, retest, confirmation (AID 2467); assay type: functional, cell-based
[3] = molecular target: Serine/threonine-protein phosphatase (Candida dubliniensis (strain CD36 / CBS 7987 / NCPF 3949 / NRRLY-17841) (Yeast), UniProt B9W6M3); test: blockers of CaCl2-induced CDRE-lacZ signaling – S. cerevisiae, luminescence, secondary, dose response (AID 2388); assay type: functional, cell-based;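 note: yeast reporter cells carrying a calcineurin-responsive lacZ construct stimulated with calcium chloride; luminescent beta-galactosidase reporter signal in whole cells rather than isolated phosphatase activity; potency for inhibition where a drop in reporter signal means calcineurin blockade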
[4] = molecular target: ATP-dependent molecular chaperone HSP82 (Candida albicans (strain WO-1) (Yeast), UniProt C4YTQ8); test: steroid-induced GRE reporter decrease in yeast – S. cerevisiae, luminescence, Hsp90 inhibitor project, dose response (AID 2400); assay type: functional, cell-based;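 note: beta-galactosidase luminescence from glucocorticoid response element reporter as proxy for Hsp90 function; inhibitor potency where signal loss means Hsp90 inhibition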
[5] = blockers of HIV-1 envelope-mediated cell-cell fusion – cherry-pick, dose response (AID 652057); assay type: functional, cell-based
[6] = viability loss in CEM21 cells – cell-based, CellTiter-Glo luminescence, cherry-picked, cytotoxicity control for viral fusion inhibitor project, dose response (AID 652042); assay type: functional;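 note: potency for signal decrease meaning cytotoxicity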
[7] = blockers of HIV-1 ZM109 envelope-driven cell-cell fusion – HeLa effector, CEM target cells, luciferase, cherry-pick, dose response (AID 652058); assay type: functional, cell-based;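 note: luciferase signal from HIV-1 Env mediated cell-cell fusion of effector and target cells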
[8] = off-target signal loss in HeLa-CEM21 co-culture – HeLa F-luc CTL cells, cherry-picked, counter-screen for HIV-1 Env fusion inhibitor project, dose response (AID 652040); assay type: functional, cell-based;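 note: potency for signal decrease marking cytotoxic or nonspecific inhibition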
[9] = HIV-1 AD8 envelope cell-cell fusion blockers – cherry-pick, dose response (AID 652062); assay type: functional, cell-based;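 note: luciferase signal from cell-cell fusion driven by HIV-1 clade B AD8 Env; potency is for inhibitors of fusion seen as a drop in luminescence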
HEK293 [10] = test: cells; settings: Homo sapiens
HEK293 [11] = test: cells; settings: Homo sapiens; remark: listed apart in the source
BJ [12] = test: BJ-TERT fibroblast viability loss – cell-based, RAS-independent, luminescence, dose response (AID 1933); assay type: functional; settings: Homo sapiens
[13] = molecular target: T1, Heat shock factor protein 1 (Mus musculus, UniProt P38532); test: decrease of HSF1-responsive luciferase luminescence – cell-based, NIH3T3, dose retest, confirmation (AID 2382); assay type: functional;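 note: NIH3T3 fibroblasts with HSF1-driven luciferase reporter stressed by proteasome inhibitor MG132; luminescence from HSF1-driven luciferase expression after 8 hours of MG132 stress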
T1 sequence (P38532 whole entry): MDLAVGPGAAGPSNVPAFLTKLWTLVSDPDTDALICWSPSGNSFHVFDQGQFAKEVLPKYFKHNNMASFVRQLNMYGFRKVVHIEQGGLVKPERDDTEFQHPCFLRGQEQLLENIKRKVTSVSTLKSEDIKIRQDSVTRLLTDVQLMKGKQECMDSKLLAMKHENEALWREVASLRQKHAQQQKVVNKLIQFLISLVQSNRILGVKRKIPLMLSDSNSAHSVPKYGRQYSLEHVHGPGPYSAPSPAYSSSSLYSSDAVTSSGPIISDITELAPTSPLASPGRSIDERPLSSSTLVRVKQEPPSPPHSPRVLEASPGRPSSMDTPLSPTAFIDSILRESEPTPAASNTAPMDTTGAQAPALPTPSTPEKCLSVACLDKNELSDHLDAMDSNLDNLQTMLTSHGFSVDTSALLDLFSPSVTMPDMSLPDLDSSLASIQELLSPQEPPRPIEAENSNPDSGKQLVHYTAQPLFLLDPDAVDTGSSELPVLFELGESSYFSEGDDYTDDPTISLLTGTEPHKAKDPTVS

BJ [14] = test: cells; assay type: functional, cell-based; settings: Homo sapiens
[15] = viability of PTEN-deleted HCT116 cells – cell-based, HCT116 PTEN knockout, dose response (AID 1047); assay type: functional;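 note: HCT116 colon tumor cells with PTEN knocked out; cells exposed to compound for 60 hours before readout; potency for loss of cell viability measured by luminescence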
[16] = viability of HCT116 lacking mutant beta-catenin – cell-based, human colon tumor, dose response (AID 1045); assay type: functional;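 note: HCT116 colon tumor cells with beta catenin knocked out; cells exposed to compound for 60 hours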
BJ [17] = test: BJ-TERT-LT-ST fibroblast viability loss – cell-based, RAS-independent, luminescence, dose response (AID 1935); assay type: functional; settings: Homo sapiens;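 note: BJ fibroblasts immortalized with TERT plus LT and ST oncogenes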
[18] = DRD fibroblast viability loss – cell-based, non-viral oncogenic, luminescence, dose response (AID 1934); assay type: functional; settings: Homo sapiens
[19] = molecular target: G-protein coupled receptor 55 (Homo sapiens, UniProt Q9Y2T6); test: selective activators of receptor GPR55 – imaging, U2OS cells, beta-arrestin-GFP redistribution, primary screen (AID 1961); assay type: functional
[20] = Luminescence Cell-Based Dose Retest to Confirm Inhibitors of Cancer Stem Cells. [Related pubchem assays (depositor defined):AID2717, AID2721]; assay type: functional; settings: Homo sapiens
BJ [21] = test: growth inhibition of engineered Ras-driven BJ cells – cell-based, alamar blue fluorescence, cherrypicked samples, dose response (AID 2631); assay type: functional; settings: Homo sapiens;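 note: confirmatory dose-response assay in RAS-dependent BJ fibroblasts engineered with TERT, LT and ST, with cytotoxicity read by fluorescence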
INS1 = test: INS-1E survival protection against cytokine death – cell-based, luminescence, retest, dose response (AID 449756); assay type: functional; settings: Rattus norvegicus;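 note: cell death triggered by IL-1 beta plus TNF-alpha plus IFN-gamma mixture; protective hits raise ATP signal compared with cytokine alone wells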
[22] = reduction of Shn3 3'UTR-driven luciferase in osteoblasts – cell-based, Clone20 osteoblasts, firefly luciferase, cherry-picked, dose response (AID 624132); assay type: functional;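 note: firefly luciferase luminescence from reporter carrying the Shn3 3'UTR in osteoblasts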
[23] = non-specific 3'UTR reporter inhibition in Clone20-Shn3RL – cell-based, Renilla luciferase, cherry-picked, counter-screen for Shn3 inhibitor project, dose response (AID 624133); assay type: functional
[24] = molecular target: T2, Corticotropin-releasing factor receptor 2/Corticotropin-releasing factor-binding protein (Homo sapiens, UniProt P24387+Q13324); test: Dose Response confirmation of uHTS hits for small molecule antagonists of the CRF-binding protein and CRF-R2 receptor complex.; assay type: functional; settings: read-out: IC50_Mean
T2 sequence (Q13324 whole entry): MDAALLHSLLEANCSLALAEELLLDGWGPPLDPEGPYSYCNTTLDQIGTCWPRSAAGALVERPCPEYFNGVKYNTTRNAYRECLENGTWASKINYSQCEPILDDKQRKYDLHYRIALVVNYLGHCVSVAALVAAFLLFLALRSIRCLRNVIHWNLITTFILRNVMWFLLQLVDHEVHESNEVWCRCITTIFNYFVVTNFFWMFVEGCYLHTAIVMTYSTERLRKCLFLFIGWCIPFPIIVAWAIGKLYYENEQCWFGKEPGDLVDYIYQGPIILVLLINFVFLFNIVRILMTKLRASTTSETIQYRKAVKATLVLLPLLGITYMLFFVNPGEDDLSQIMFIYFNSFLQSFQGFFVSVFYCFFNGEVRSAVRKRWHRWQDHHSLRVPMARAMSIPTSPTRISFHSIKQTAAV
T2 sequence (P24387 whole entry): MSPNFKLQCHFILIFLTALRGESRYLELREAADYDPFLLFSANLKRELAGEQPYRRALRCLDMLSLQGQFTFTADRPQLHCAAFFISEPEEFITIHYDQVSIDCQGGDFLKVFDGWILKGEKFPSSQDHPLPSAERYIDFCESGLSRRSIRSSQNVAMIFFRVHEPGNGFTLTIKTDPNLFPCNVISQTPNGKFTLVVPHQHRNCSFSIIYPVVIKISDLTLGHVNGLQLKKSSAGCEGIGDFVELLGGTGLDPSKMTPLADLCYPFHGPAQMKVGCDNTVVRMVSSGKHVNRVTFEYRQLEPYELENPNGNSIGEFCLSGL

[25] = molecular target: T2, Corticotropin-releasing factor receptor 2/Corticotropin-releasing factor-binding protein; test: activators of CRF receptor 2 with binding protein – uHTS hits, confirmation (AID 602473); assay type: functional; settings: read-out: EC50_Mean
Escherichia coli = test: microbe, parasite or virus in culture
HEK293 [26] = test: EBV LMP1 TES2 canonical NF-kB signalling blockers – cell-based, HEK293, luciferase, cherry-pick, dose response (AID 588343); assay type: functional; settings: Homo sapiens
[27] = molecular target: Latent membrane protein 1 (Human herpesvirus 4 (strain B95-8), UniProt P03230); test: LMP1 TES1 pathway selectivity over dsRED control – imaging, HEK293T, dual-color eGFP/dsRED, cherry-picks, selectivity assay for LMP1 NF-kB inhibitor project, dose response (AID 588398); assay type: functional, cell-based
[28] = system: Streptococcus sp. 'group A'; test: Streptococcus pyogenes SK(-)GAS viability under kanamycin – luminescence, BacTiterGlo, confirmation, counter-screen for streptokinase expression inhibitor project, dose response (AID 1900); assay type: functional, organism-based
Streptococcus = test: GAS UMAA2166 growth inhibition – luminescence, BacTiterGlo, counter-screen for streptokinase expression inhibitor project, dose response (AID 1915); assay type: functional, organism-based;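 note: potency for reduction of bacterial viability or growth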
Nonstructural protein 1 = Nonstructural protein 1 (Influenza A virus, UniProt Q194T2); assay type: functional, Influenza A virus (A/California/07/2009(H1N1))
Vero = test: cells; assay type: functional; settings: Chlorocebus sabaeus
ORF 73 = molecular target: T3, ORF 73 (Human herpesvirus 8, UniProt O40947); test: KSHV LANA DNA-binding disruption – biochemical, fluorescence polarization, cherry-picked samples, dose response (AID 504725); set-up: species or system Human gammaherpesvirus 8;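 note: fluorescence polarization of a labeled DNA duplex reporting LANA DNA binding; potency is for inhibitors that block LANA binding to the DNA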
T3 sequence (O40947 whole entry): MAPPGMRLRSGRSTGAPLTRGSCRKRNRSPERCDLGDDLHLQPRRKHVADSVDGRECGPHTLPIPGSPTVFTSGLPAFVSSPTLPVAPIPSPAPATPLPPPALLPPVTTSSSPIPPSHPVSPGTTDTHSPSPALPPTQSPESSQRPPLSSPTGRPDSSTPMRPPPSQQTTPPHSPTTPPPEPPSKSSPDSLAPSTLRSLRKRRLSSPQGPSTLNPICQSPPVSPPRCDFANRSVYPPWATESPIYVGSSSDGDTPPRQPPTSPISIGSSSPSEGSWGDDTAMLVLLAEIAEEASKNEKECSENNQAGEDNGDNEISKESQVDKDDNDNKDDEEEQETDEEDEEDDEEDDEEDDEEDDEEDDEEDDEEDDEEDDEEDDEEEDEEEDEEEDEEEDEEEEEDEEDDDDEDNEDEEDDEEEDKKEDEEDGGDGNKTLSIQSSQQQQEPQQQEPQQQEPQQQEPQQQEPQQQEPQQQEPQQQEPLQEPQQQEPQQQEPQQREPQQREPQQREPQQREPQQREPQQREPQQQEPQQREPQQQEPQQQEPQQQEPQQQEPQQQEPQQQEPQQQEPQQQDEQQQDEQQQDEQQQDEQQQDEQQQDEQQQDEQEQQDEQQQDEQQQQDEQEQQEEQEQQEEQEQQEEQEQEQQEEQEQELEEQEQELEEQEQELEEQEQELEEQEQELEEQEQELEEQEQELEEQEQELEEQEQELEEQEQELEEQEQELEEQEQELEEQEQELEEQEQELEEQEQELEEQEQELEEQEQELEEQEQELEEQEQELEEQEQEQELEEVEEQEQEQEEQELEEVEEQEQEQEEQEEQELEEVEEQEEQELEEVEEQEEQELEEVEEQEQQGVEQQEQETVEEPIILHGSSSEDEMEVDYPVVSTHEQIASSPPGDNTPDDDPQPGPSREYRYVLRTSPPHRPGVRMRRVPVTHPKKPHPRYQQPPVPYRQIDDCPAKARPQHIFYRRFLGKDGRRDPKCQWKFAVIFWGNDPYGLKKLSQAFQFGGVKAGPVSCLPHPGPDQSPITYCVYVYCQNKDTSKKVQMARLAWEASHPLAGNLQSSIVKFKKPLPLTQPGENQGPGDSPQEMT

Keap1/Nrf2 = Keap1/Nrf2 (Homo sapiens, UniProt Q14145); test: disruptors of Keap1 binding to Nrf2 peptide – biochemical, fluorescence polarization, cherry-picked samples, dose response (AID 588683)
Chain of Keap1/Nrf2 (Q16236 whole entry): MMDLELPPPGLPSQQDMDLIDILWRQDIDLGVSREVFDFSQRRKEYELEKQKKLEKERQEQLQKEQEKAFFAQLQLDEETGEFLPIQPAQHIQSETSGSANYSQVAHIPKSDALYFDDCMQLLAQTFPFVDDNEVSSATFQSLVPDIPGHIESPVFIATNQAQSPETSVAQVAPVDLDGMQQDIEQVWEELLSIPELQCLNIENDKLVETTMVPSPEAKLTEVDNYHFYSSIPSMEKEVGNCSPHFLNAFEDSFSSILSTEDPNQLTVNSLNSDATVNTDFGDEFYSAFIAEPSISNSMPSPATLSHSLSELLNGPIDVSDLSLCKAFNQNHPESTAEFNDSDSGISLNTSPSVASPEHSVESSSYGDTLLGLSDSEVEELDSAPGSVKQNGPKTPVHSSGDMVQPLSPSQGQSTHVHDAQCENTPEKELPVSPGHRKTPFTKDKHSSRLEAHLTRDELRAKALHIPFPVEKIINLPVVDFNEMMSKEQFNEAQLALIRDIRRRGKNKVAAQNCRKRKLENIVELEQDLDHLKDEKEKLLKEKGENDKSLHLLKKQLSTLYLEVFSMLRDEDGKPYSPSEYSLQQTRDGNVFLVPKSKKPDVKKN
Chain of Keap1/Nrf2 (Q14145 whole entry): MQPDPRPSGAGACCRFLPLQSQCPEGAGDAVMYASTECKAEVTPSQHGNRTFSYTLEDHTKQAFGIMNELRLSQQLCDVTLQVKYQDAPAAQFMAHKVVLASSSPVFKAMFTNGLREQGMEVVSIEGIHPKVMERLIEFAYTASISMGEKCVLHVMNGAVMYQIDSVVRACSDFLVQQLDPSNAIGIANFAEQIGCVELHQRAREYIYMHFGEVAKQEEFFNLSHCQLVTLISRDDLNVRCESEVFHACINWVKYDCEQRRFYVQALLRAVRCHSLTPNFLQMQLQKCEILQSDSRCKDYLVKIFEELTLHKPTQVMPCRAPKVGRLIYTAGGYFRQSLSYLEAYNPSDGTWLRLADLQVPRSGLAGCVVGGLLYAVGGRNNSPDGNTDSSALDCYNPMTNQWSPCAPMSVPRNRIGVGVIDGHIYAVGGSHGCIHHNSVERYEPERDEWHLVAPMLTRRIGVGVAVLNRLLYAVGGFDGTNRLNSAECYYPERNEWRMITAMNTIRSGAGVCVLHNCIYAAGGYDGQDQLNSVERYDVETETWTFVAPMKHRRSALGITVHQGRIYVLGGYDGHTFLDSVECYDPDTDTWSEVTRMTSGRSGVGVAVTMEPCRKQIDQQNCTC

Chain of Serine/threonine-protein phosphatase (B9W6M3 whole entry): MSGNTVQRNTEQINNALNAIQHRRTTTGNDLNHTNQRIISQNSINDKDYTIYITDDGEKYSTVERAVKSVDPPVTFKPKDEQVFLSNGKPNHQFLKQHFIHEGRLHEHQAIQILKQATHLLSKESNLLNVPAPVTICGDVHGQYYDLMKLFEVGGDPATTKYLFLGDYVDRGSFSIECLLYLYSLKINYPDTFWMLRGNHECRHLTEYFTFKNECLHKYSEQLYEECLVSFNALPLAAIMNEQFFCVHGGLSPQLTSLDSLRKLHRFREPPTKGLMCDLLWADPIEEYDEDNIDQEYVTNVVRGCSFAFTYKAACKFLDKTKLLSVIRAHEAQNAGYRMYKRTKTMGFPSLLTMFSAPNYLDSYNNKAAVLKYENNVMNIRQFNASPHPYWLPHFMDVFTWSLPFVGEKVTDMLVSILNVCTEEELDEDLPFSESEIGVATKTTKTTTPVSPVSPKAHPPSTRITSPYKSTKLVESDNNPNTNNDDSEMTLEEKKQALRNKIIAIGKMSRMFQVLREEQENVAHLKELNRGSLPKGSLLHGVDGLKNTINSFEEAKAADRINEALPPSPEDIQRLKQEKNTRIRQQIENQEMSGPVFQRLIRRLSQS
Chain of ATP-dependent molecular chaperone HSP82 (C4YTQ8 whole entry, the tested form may be a part): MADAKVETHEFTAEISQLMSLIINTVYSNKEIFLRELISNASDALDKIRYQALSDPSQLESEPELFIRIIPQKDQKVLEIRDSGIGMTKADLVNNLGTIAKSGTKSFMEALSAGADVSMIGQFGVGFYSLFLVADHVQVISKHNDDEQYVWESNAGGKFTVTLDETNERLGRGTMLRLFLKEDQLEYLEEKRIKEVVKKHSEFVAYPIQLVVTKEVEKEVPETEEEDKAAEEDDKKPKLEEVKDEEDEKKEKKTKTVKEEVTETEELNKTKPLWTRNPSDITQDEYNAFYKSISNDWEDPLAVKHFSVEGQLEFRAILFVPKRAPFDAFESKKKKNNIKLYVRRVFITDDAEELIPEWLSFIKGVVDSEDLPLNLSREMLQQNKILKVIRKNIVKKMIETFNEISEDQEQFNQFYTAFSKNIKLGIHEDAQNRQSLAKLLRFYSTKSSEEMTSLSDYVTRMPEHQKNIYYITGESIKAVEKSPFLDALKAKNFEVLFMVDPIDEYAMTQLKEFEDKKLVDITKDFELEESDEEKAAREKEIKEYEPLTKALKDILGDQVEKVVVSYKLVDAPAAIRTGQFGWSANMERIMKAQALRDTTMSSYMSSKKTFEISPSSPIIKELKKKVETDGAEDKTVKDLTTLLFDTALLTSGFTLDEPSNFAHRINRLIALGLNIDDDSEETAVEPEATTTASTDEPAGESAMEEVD
Chain of Latent membrane protein 1 (P03230 whole entry): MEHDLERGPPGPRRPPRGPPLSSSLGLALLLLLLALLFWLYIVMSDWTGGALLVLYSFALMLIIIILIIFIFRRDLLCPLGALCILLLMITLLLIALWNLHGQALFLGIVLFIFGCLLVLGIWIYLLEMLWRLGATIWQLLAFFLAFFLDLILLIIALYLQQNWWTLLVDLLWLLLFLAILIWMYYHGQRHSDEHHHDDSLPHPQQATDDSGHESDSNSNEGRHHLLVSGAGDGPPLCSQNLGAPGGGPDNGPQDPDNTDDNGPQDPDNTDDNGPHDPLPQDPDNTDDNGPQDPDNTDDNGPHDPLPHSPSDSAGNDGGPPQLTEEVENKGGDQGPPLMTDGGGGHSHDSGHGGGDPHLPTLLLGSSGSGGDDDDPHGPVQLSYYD
Chain of Nonstructural protein 1 (Q194T2 whole entry): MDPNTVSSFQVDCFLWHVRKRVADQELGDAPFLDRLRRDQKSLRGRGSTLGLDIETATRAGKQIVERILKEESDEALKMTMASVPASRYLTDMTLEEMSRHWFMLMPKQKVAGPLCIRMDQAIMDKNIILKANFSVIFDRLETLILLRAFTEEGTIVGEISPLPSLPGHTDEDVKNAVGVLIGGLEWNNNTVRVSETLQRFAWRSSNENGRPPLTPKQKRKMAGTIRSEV
Chain of G-protein coupled receptor 55 (Q9Y2T6 whole entry): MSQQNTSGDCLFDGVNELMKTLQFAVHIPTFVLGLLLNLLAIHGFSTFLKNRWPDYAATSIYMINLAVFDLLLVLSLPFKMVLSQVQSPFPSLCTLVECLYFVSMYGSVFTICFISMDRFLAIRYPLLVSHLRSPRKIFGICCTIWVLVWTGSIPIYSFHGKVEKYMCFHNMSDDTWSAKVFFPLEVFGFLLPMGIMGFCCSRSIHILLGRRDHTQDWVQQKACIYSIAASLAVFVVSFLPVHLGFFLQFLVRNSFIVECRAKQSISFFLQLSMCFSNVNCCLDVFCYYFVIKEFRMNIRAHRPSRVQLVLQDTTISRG

CCCCOc1cccc(C2C(C(=O)c3ccc(C)o3)=C(O)C(=O)N2Cc2ccco2)c1 (configuration not stated)
EC50 [1]: > 150 µM (inactive) | EC50 [2]: 0.398 µM (active) | EC50 [3]: > 180 µM (inactive) | EC50 [4]: 16.6 µM (active)

COC(=O)c1c(NC(=O)CN2CCC3(O)CCCCC3C2c2cc(OC)ccc2OC)sc(C)c1C (configuration not stated)
AC50 [5]: 0.472 µM (active) | AC50 [6]: 48.1 µM (active) | AC50 [7]: 1.15 µM (active) | AC50 [8]: 1.21 µM (active) | AC50 [9]: 3.62 µM (active) | EC50 (HEK293 [10]): > 59.7 µM (inactive) | EC50 (HEK293 [11]): > 59.7 µM (inactive)

CCOC(=O)/C(=C\c1ccc([N+](=O)[O-])cc1)C(=O)c1cc(C(C)=O)c(Nc2ccccc2)s1
EC50 (BJ [12]): 2.12 µM (active) | EC50 [13]: 3.16 µM (inconclusive) | EC50 (BJ [14]): 3.1 µM (active) | EC50 [15]: 4.17 µM (active) | EC50 [16]: 3.81 µM (active) | EC50 (BJ [17]): 2.18 µM (inconclusive) | EC50 [18]: 3.32 µM (active) | EC50 [19]: > 32 µM (inactive) | AC50 [20]: 0.685 µM (active) | EC50 (BJ [21]): 1.49 µM (active) | AC50 (INS1): 1.94 µM (active) | AC50 [22]: 2.47 µM (active) | AC50 [23]: 6.21 µM (active)

COC(=O)c1ccc(OC(=O)c2nn(C)cc2Cl)c(OC)c1
IC50 [24]: > 47.1 µM (inactive) | EC50 [25]: > 53 µM (inactive) | AC50 (Escherichia coli): 42.7 µM (active)

CCc1cc(C(=O)NN=C(S)Nc2cc(C)ccc2C)cs1
EC50 [1]: > 150 µM (inactive) | EC50 [2]: 0.382 µM (active) | EC50 [3]: > 180 µM (inactive) | EC50 [4]: > 150 µM (inactive)

O=C1CN(c2nc(-c3cccnc3)nc3sc4c(c23)CCCC4)CCN1
EC50 (HEK293 [10]): > 59.6 µM (inactive) | EC50 (HEK293 [11]): > 59.6 µM (inactive)

O=C(CF)N(O)c1ccc(C=Cc2ccccc2)cc1
AC50 (HEK293 [26]): 0.732 µM (active) | AC50 [27]: 0.734 µM (active)

C/C(=N\NC(=O)c1cccc2ccccc12)c1ccccn1
EC50 [28]: 2.88 µM (active) | EC50 (BJ [12]): 5.73 µM (active) | EC50 (BJ [14]): 3.45 µM (active) | EC50 (BJ [17]): 3.87 µM (active) | EC50 [18]: 2.4 µM (active) | EC50 (Streptococcus): 6.39 µM (active) | IC50 (Nonstructural protein 1): 7.25 µM (active) | EC50 (BJ [21]): 0.497 µM (inconclusive) | CC50 (Vero): 3.56 µM (active)

O=C(c1ccccc1)c1ccc(O)cc1O [2,4-DIHYDROXYBENZOPHENONE]
AC50 (ORF 73): 5.38 µM (active) | AC50 (Keap1/Nrf2): 11.1 µM (active)

CC1CCc2c(N3CCC(O)CC3)c(F)cc3c(=O)c(C(=O)O)cn1c23 (configuration not stated) [NADIFLOXACIN]
AC50 (Escherichia coli): 1.3 µM (active)
